{"source": "patent US7892767B2", "about": "“Phosphospecific chemokine receptor antibodies” (Washington University in St. Louis, priority 2005, dated 2011)", "key": {"Nf1−/− astrocytes [1]": {"tested_on": "Nf1−/− astrocytes", "experiment": "Cell cycle analysis by flow cytometry, Nf1−/− astrocytes", "type": "cell-based, mouse", "details": "CXCL12 0.1 μg/ml", "description": "Cell Cycle Analysis. Ethanol fixed cells were washed in PBS and resuspended in PI staining solution containing 0.1% Triton-X-100, 0.2 mg/ml RNase A, and 20 ug/ml Propidium Iodide in PBS. The cells were incubated for 15 minutes at 37° C., in the dark. Flow Cytometry was performed on a FACSCalibur system (Becton Dickinson, San Jose, Calif.) Data were analyzed using CellQuest software (Becton Dickinson, San Jose, Calif.). Aggregates and debris were excluded from the analysis.\nThe basis for the in vitro growth effects of CXCL12 was further evaluated by cell cycle analysis of asynchronously growing cultures of Nf1+/+ and Nf1−/− astrocytes in the presence and absence of CXCL12. In agreement with measurements of cell number, 15% more Nf1−/− astrocytes were in the S+G2M fraction of the cell cycle compared to Nf1+/+ astrocytes (P<0.005, data not shown). This decrease in Nf1+/+ cell number in response to CXCL12 was the result of both a 6% decrease in proliferation (S+G2-M) and a 38+/−8% increase in apoptosis (sub-G0). The increase in Nf1−/− cell number was the result of a 27+/−12% decline in apoptosis alone (FIG. 9C)."}, "Nf1+/+ astrocytes": {"tested_on": "Nf1+/+ astrocytes", "experiment": "Cell number by trypan blue exclusion, Nf1+/+ astrocytes", "type": "cell-based, mouse", "details": "CXCL12 0.1 ug/ml (≈10 nM), 24 hours, vs untreated controls", "description": "Culture and treatment of primary astrocytes. Primary cultures of astrocytes were prepared from post-natal day two Nf1^flox/flox mice as previously described (134) and in accordance with established Animal Studies Protocols at Washington University School of Medicine. Cultures were infected with adenovirus containing either Cre recombinase (Nf1−/−) or LacZ (Nf1+/+). Primary cultures of astrocytes were grown under standard adherent conditions in serum free media (DMEM/F12 or Neurobasal (Gibco-BRL)) in the presence or absence of 0.1 μg/ml CXCL12 (Peprotech) and 10 μM Forskolin for 24 hours, as indicated. Cell number was determined after 24 hours by trypan blue exclusion and the growth effects of CXCL12 were derived as follows: ((cell number in the presence of CXCL12—cell number cell in the absence of CXCL12)/cell number in the absence of CXCL12)×100.)\nTo determine the biological significance of CXCR4 activation to NF1 glioma biology, we next sought to evaluate the regulation of CXCL12 growth effects by neurofibromin in astrocytes. While the true cell of origin of astrocytomas remains unknown, we utilized primary cultures of cortical astrocytes as a model of a normal counterpart to astrocytoma cells. Astrocytes were derived from Nf1^flox/flox mice and rendered Nf1+/+ or Nf1−/− by infection with adenovirus encoding LacZ or Cre recombinase, respectively."}, "[2]": {"tested_on": "Daoy medulloblastoma cells", "experiment": "Intracellular cAMP by ELISA, Daoy medulloblastoma cells", "type": "cell-based, human", "details": "1 μg/ml CXCL12", "description": "(§1) Growth factor and drug treatment. Following serum-starvation for 24 hours, astrocytes, granule cells, U87 cells and Daoy cells, were treated with 1 μg/ml CXCL12 (PeproTech), […] AMD3465 (kind gift from Simon Fricker, AnorMED, Langley, BC, Canada) (200 μM Rolipram (Sigma), or 10 μM Forskolin (Sigma) as indicated.\n(§2) cAMP measurement in cell culture. cAMP concentration was measured using a Correlated-EIA™. Enzyme Immunoassay Kit (Assay Designs Inc. MI) according to the manufacturer's instructions. Briefly, U87 or Daoy cells were serum-starved for 24 hours, and treated with CXCL12 (1 μg/ml), Rolipram (200 μM), or forskolin (10 μM). Cells were lysed in 0.1M HCL and particulate matter was removed by centrifugation at >600×g for 10 min. The supernatants were dried down and resuspended in assay buffer.\n(§3) Determination of cAMP concentration. Competitive immunoassay for cAMP concentration was performed exactly as directed by the manufacturer. Absorbance at 405 nm was measured and cAMP concentrations were determined by calculation based on a standard curve. Protein concentrations were measured by colormetric assay (Bio-Rad, Hercules, Calif.) according to the manufacturer's directions. cAMP values were normalized to protein for each sample individually."}, "[3]": {"tested_on": "Daoy medulloblastoma cells", "experiment": "Viable cell number by trypan blue exclusion, Daoy cells", "type": "cell-based, human", "details": "CXCL12 1 μg/ml", "description": "Brain tumor cell cultures. Cells were cultured in αMEM (Invitrogen, Carlsbad, Calif.) supplemented with 10% FCS (Biomedia, Foster City, Calif.) in the presence of penicillin streptomycin at 37° C. with 5% CO2.\nas §1"}, "Nf1−/− astrocytes [4]": {"tested_on": "Nf1−/− astrocytes", "experiment": "Intracellular cAMP by ELISA, Nf1−/− astrocytes", "type": "cell-based, mouse", "description": "cAMP measurements. cAMP was measured by ELISA (Cayman Chemical Company, Ann Arbor, Mich. or Assay Designs, Ann Arbor, Mich.). Briefly, astrocyte cultures were lysed in 0.1 N HCl. After the removal of cellular debris, soluble cellular extract was dried down and resuspended in EIA buffer. Experimental samples and cAMP standard curve were acetylated to increase the sensitivity of the assay and incubated with cAMP ACHe tracer and cAMP EIA anti-serum overnight at 4° C. according to the manufacturer's instructions. After extensive washing, bound antibody was measured by spectrophotometric analysis. Concentrations of cAMP were derived from comparison with standard curve according to manufacturer's instructions.\nWe evaluated the time dependent changes in intracellular cAMP in Nf1+/+ and Nf1−/− astrocytes after exposure to 0.1 μg/ml CXCL12. […] However, in Nf1+/+ astrocytes, intracellular levels of cAMP rapidly recovered to baseline and oscillated between baseline and 40% of baseline over the 45-minute experimental period (FIG. 10B).\nWe hypothesized that if cooperative signaling between Nf1 loss and CXCR4 activation promotes tumor formation through the suppression of cAMP, then agents that alter intracellular cAMP should modulate CXCL12 responses. We treated astrocytes with the adenylyl cyclase (AC) activator forskolin in the presence and absence of CXCL12. […] In these experiments, forskolin elevated intracellular cAMP levels in both Nf1+/+ and Nf1−/− astrocytes with peak values of 17.8+/−0.4 and 19.4+/−4.5 pmol/mg of protein, respectively, after 24 hours of treatment. The effect of forskolin was not abrogated by co-treatment with CXCL12. Under these conditions, cAMP levels were 17.9+/−2.5 and 10.4+/−5.8 pmol/mg of total protein in Nf1+/+ and Nf1−/− astrocytes, respectively. […] The effect of forskolin on CXCL12-mediated Nf1−/− apoptosis was evidenced by changes in the percentage of Nf1−/− astrocytes in the sub-G0 fraction of the cell cycle (FIG. 11B). Thus while astrocyte growth is dependent upon MEK and PI3 kinase activity, CXCL12-induced Nf1−/− astrocyte growth requires the suppression of intracellular cAMP levels."}, "U87 glioblastoma cells": {"tested_on": "U87 glioblastoma cells", "experiment": "Intracellular cAMP by ELISA, U87 glioblastoma cells", "type": "cell-based, human", "details": "1 μg/ml CXCL12", "description": "as §1, §2, §3"}}}
{"substance": "CXCL12: chemokine ligand of CXCR4 (Peprotech)", "values": [{"measurement": "decline in apoptosis (sub-G0)", "setting": "Nf1−/− astrocytes [1]", "value": "27+/−12%"}, {"measurement": "decrease in cell number", "setting": "Nf1+/+ astrocytes", "value": "10+/−5%"}, {"measurement": "cyclic AMP levels after CXCL12", "setting": "[2]", "value": "rapidly declined"}, {"measurement": "reduction in cAMP as compared to GPCs (area under the curve)", "setting": "[2]", "value": 70, "unit": "%"}, {"measurement": "increase in cell number", "setting": "[3]", "value": "greater than 2 fold"}, {"measurement": "increase in cell number", "setting": "[3]; serum-free", "value": "greater than 200%"}, {"measurement": "integrated area under the cAMP curve", "setting": "Nf1−/− astrocytes [4]; 0.1 μg/ml CXCL12, 45-minute period", "value": 1.96}, {"measurement": "intracellular cAMP in Nf1−/− astrocytes relative to Nf1+/+ astrocytes", "setting": "Nf1−/− astrocytes [4]; 0.1 μg/ml CXCL12, from areas under the curves", "value": "approximately 73%"}, {"measurement": "cyclic AMP levels after CXCL12", "setting": "U87 glioblastoma cells", "value": "rapidly declined"}, {"measurement": "reduction in intracellular cAMP as compared to astrocytes (area under the curve)", "setting": "U87 glioblastoma cells", "value": 45, "unit": "%"}]}
